Legend:
[1] = target: T1, hPAD4 enzyme (Homo sapiens (Human), UniProt Q9UM07); experiment: RFMS1 assay (RapidFire mass spectrometry, BAEE substrate); format: biochemical; details: 5 nM hPAD4, 250 μM BAEE, 30 min preincubation at 37° C., 90 min reaction; read-out: RFMS 1 IC50
Outline: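 hPAD4 (5 nM) preincubated 30 min at 37° C. with compound, then 250 μM BAEE for 90 min at 37° C. in pH 7.5 HEPES buffer with 50 μM calcium, 1 mM DTT, 5 μM TPEN. TCA quench, phenyl glyoxal derivatisation; citrulline product measured by RapidFire MS, normalised to internal standard; IC50 values.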

[2] = target: T1, hPAD4 enzyme; experiment: RFMS2 assay (RapidFire mass spectrometry, TSTGGRQGSHH peptide substrate); format: biochemical; details: 35 nM recombinant human PAD4, 500 μM TSTGGRQGSHH peptide, 30 minutes at room temperature; read-out: RFMS 2 IC50
Outline: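 IC50 derived from RapidFire LC-MS/MS (positive ESI MRM) of substrate versus product after a 30 min room-temperature reaction stopped with 10% formic acid. Reaction contained 35 nM human PAD4, 500 μM peptide, 2 mM CaCl2, 5 mM DTT at pH 7.4, and compounds diluted 3-fold from 20 μM.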

T1 sequence (Q9UM07 whole entry): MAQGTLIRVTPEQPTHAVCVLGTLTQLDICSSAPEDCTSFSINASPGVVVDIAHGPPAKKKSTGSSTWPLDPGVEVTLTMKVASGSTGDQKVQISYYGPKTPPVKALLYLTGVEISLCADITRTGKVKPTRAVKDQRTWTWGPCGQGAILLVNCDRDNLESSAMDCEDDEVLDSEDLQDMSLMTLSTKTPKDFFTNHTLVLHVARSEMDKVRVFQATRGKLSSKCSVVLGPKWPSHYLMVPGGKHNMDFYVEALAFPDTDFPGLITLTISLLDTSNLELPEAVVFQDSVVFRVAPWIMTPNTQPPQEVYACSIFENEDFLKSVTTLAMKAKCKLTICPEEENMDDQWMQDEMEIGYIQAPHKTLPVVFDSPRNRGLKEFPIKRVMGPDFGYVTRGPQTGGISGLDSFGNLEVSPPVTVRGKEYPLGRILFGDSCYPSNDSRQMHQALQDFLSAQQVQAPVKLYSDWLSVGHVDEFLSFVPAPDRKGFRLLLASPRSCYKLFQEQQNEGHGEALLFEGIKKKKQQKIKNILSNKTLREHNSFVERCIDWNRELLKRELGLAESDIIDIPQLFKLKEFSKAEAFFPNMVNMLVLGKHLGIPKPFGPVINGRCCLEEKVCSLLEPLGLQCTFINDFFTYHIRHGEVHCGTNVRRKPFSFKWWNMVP

Structure (SMILES)	IC50 [1]	IC50 [2]
COc1cc(F)cc2cc(-c3nc4cc5c(cc4n3C)CCN(C[C@H](N)CF)C5=O)n(CC3CC3)c12 [Example 65, (S)-6-(2-amino-3-fluoropropyl)-2-(1-(cyclopropylmethyl)-5-fluoro-7-methoxy-1H-indol-2-yl)-1-methyl-1,6,7,8-tetrahydro-5H-imidazo[4,5-g]isoquinolin-5-one]	11 to 100 nM	101 to 500 nM
COC1CCN(c2ccc3cc(-c4nc5cc6c(cc5n4C)CCN(C[C@H](N)CF)C6=O)n(CC4CC4)c3c2)CC1 [Example 68, (S)-6-(2-amino-3-fluoropropyl)-2-(1-(cyclopropylmethyl)-6-(4-methoxypiperidin-1-yl)-1H-indol-2-yl)-1-methyl-1,6,7,8-tetrahydro-5H-imidazo[4,5-g]isoquinolin-5-one]	11 to 100 nM	> 1000 nM
COCCn1c(-c2nc3cc4c(cc3n2C)CCN(C[C@H](N)CF)C4=O)cc2cccc(OC)c21 [Example 102, (S)-6-(2-amino-3-fluoropropyl)-2-(7-methoxy-1-(2-methoxyethyl)-1H-indol-2-yl)-1-methyl-1,6,7,8-tetrahydro-5H-imidazo[4,5-g]isoquinolin-5-one]	101 to 500 nM	101 to 500 nM
COc1cccc2cc(-c3nc4cc5c(cc4n3C)CCN(C[C@H](N)CF)C5=O)n(Cc3cc(C)no3)c12 [Example 113, (S)-6-(2-amino-3-fluoropropyl)-2-(7-methoxy-1-((3-methylisoxazol-5-yl)methyl)-1H-indol-2-yl)-1-methyl-1,6,7,8-tetrahydro-5H-imidazo[4,5-g]isoquinolin-5-one]	11 to 100 nM	101 to 500 nM
COc1cccc2cc(-c3nc4cc5c(cc4n3C)CCN(C[C@H](N)CF)C5=O)n(Cc3ncco3)c12 [Example 119, (S)-6-(2-amino-3-fluoropropyl)-2-(7-methoxy-1-(oxazol-2-ylmethyl)-1H-indol-2-yl)-1-methyl-1,6,7,8-tetrahydro-5H-imidazo[4,5-g]isoquinolin-5-one]	11 to 100 nM	101 to 500 nM
COc1cccc2cc(-c3nc4cc5c(cc4n3C)CCN(C[C@H](N)CF)C5=O)n(Cc3nc(C)co3)c12 [Example 124, (S)-6-(2-amino-3-fluoropropyl)-2-(7-methoxy-1-((4-methyloxazol-2-yl)methyl)-1H-indol-2-yl)-1-methyl-1,6,7,8-tetrahydro-5H-imidazo[4,5-g]isoquinolin-5-one]	11 to 100 nM	101 to 500 nM
COc1cccc2cc(-c3nc4cc5c(cc4n3C)CCN(C[C@H](N)CF)C5=O)n(Cc3nccs3)c12 [Example 127, (S)-6-(2-amino-3-fluoropropyl)-2-(7-methoxy-1-(thiazol-2-ylmethyl)-1H-indol-2-yl)-1-methyl-1,6,7,8-tetrahydro-5H-imidazo[4,5-g]isoquinolin-5-one]	101 to 500 nM	101 to 500 nM
COc1cccc2cc(-c3nc4cc5c(cc4n3C)CCN(C[C@H](N)CF)C5=O)n(Cc3cc(N)no3)c12 [Example 146, (S)-6-(2-amino-3-fluoropropyl)-2-(1-((3-aminoisoxazol-5-yl)methyl)-7-methoxy-1H-indol-2-yl)-1-methyl-1,6,7,8-tetrahydro-5H-imidazo[4,5-g]isoquinolin-5-one]	11 to 100 nM	101 to 500 nM
Cn1c(-c2cc3cccc(OCCn4cncn4)c3n2CC2CC2)nc2cc3c(cc21)CCN(C[C@H](N)CF)C3=O [Example 150, (S)-2-(7-(2-(1H-1,2,4-triazol-1-yl)ethoxy)-1-(cyclopropylmethyl)-1H-indol-2-yl)-6-(2-amino-3-fluoropropyl)-1-methyl-1,6,7,8-tetrahydro-5H-imidazo[4,5-g]isoquinolin-5-one]	≤ 10 nM	101 to 500 nM
Cc1nccn1CCOc1cccc2cc(-c3nc4cc5c(cc4n3C)CCN(C[C@H](N)CF)C5=O)n(CC3CC3)c12 [Example 165, (S)-6-(2-amino-3-fluoropropyl)-2-(1-(cyclopropyl-methyl)-7-(2-(2-methyl-1H-imidazol-1-yl)ethoxy)-1H-indol-2-yl)-1-methyl-1,6,7,8-tetrahydro-5H-imidazo [4,5-g]isoquinolin-5-one]	11 to 100 nM	101 to 500 nM
Cn1cncc1CCOc1cccc2cc(-c3nc4cc5c(cc4n3C)CCN(C[C@H](N)CF)C5=O)n(CC3CC3)c12 [Example 169, (S)-6-(2-amino-3-fluoropropyl)-2-(1-(cyclopropyl-methyl)-7-(2-(1-methyl-1H-imidazol-5-yl)ethoxy)-1H-indol-2-yl)-1-methyl-1,6,7,8-tetrahydro-5H-imidazo [4,5-g]isoquinolin-5-one]	11 to 100 nM	101 to 500 nM
Cn1c(-c2cc3cccc(OCc4ccn[nH]4)c3n2CC2CC2)nc2cc3c(cc21)CCN(C[C@H](N)CF)C3=O [Example 174, (S)-2-(7-((1H-pyrazol-5-yl)methoxy)-1-(cyclopropyl-methyl)-1H-indol-2-yl)-6-(2-amino-3-fluoropropyl)-1-methyl-1,6,7,8-tetrahydro-5H-imidazo[4,5-g] isoquinolin-5-one]	11 to 100 nM	11 to 100 nM
Cn1c(-c2cc3cccc(OCCn4ccnn4)c3n2CC2CC2)nc2cc3c(cc21)CCN(C[C@H](N)CF)C3=O [Example 181, (S)-2-(7-(2-(1H-1,2,3-triazol-1-yl)ethoxy)-1-(cyclopropylmethyl)-1H-indol-2-yl)-6-(2-amino-3-fluoropropyl)-1-methyl-1,6,7,8-tetrahydro-5H-imidazo[4,5-g]isoquinolin-5-one]	≤ 10 nM	11 to 100 nM
CN1CC(COc2cccc3cc(-c4nc5cc6c(cc5n4C)CCN(C[C@H](N)CF)C6=O)n(CC4CC4)c23)CC1=O (stereo partly drawn) [Example 184, 6-((S)-2-amino-3-fluoropropyl)-2-(1-(cyclopropylmethyl)-7-((1-methyl-5-oxopyrrolidin-3-yl)methoxy)-1H-indol-2-yl)-1-methyl-1,6,7,8-tetrahydro-5H-imidazo[4,5-g]isoquinolin-5-one]	11 to 100 nM	101 to 500 nM
Cn1c(-c2cc3cccc(OCCn4cnnn4)c3n2CC2CC2)nc2cc3c(cc21)CCN(C[C@H](N)CF)C3=O [Example 186, (S)-2-(7-(2-(1H-tetrazol-1-yl)ethoxy)-1-(cyclopropylmethyl)-1H-indol-2-yl)-6-(2-amino-3-fluoropropyl)-1-methyl-1,6,7,8-tetrahydro-5H-imidazo[4,5-g]isoquinolin-5-one]	≤ 10 nM	11 to 100 nM
Cn1c(-c2cc3cccc(OC[C@@H]4CNC(=O)C4)c3n2CC2CC2)nc2cc3c(cc21)CCN(C[C@H](N)CF)C3=O [Example 190, 6-((S)-2-amino-3-fluoropropyl)-2-(1-(cyclopropylmethyl)-7-(((S)-5-oxopyrrolidin-3-yl)methoxy)-1H-indol-2-yl)-1-methyl-1,6,7,8-tetrahydro-5H-imidazo[4,5-g]isoquinolin-5-one]	≤ 10 nM	11 to 100 nM
Cn1c(-c2cc3cccc(OCCc4ccno4)c3n2CC2CC2)nc2cc3c(cc21)CCN(C[C@H](N)CF)C3=O [Example 195, (S)-6-(2-amino-3-fluoropropyl)-2-(1-(cyclopropylmethyl)-7-(2-(isoxazol-5-yl)ethoxy)-1H-indol-2-yl)-1-methyl-1,6,7,8-tetrahydro-5H-imidazo[4,5-g]isoquinolin-5-one]	≤ 10 nM	11 to 100 nM
Cn1c(-c2cc3cccc(OCCn4ccnc4)c3n2CC2CC2)nc2cc3c(cc21)CCN(C[C@H](N)CF)C3=O [Example 198, (S)-2-(7-(2-(1H-imidazol-1-yl)ethoxy)-1-(cyclopropylmethyl)-1H-indol-2-yl)-6-(2-amino-3-fluoropropyl)-1-methyl-1,6,7,8-tetrahydro-5H-imidazo[4,5-g]isoquinolin-5-one]	≤ 10 nM	11 to 100 nM
Cn1c(-c2cc3cccc(OCCc4c[nH]nn4)c3n2CC2CC2)nc2cc3c(cc21)CCN(C[C@H](N)CF)C3=O [Example 199, (S)-2-(7-(2-(1H-1,2,3-triazol-4-yl)ethoxy)-1-(cyclopropyl-methyl)-1H-indol-2-yl)-6-(2-amino-3-fluoropropyl)-1-methyl-1,6,7,8-tetrahydro-5H-imidazo[4,5-g]isoquinolin-5-one]	≤ 10 nM	11 to 100 nM
COC(=O)N(C)CCOc1cccc2cc(-c3nc4cc5c(cc4n3C)CCN(C[C@H](N)CF)C5=O)n(CC3CC3)c12 [Example 201, methyl (S)-(2-((2-(6-(2-amino-3-fluoropropyl)-1-methyl-5-oxo-5,6,7,8-tetrahydro-1H-imidazo[4,5-g]isoquinolin-2-yl)-1-(cyclopropylmethyl)-1H-indol-7-yl)oxy)ethyl)(methyl) carbamate]	≤ 10 nM	101 to 500 nM
Cn1c(-c2cc3cccc(OCCc4cnoc4)c3n2CC2CC2)nc2cc3c(cc21)CCN(C[C@H](N)CF)C3=O [Example 204, (S)-6-(2-amino-3-fluoropropyl)-2-(1-(cyclopropylmethyl)-7-(2-(isoxazol-4-yl)ethoxy)-1H-indol-2-yl)-1-methyl-1,6,7,8-tetrahydro-5H-imidazo[4,5-g]isoquinolin-5-one]	≤ 10 nM	11 to 100 nM
Cn1c(-c2cc3cccc(OCCO)c3n2CC2CC2)nc2cc3c(cc21)CCN(C[C@H](N)CF)C3=O [Example 205, (S)-6-(2-amino-3-fluoropropyl)-2-(1-(cyclopropylmethyl)-7-(2-hydroxyethoxy)-1H-indol-2-yl)-1-methyl-1,6,7,8-tetrahydro-5H-imidazo[4,5-g]isoquinolin-5-one]	11 to 100 nM	101 to 500 nM

Source: patent US20250346592A1 (Celgene Corporation, priority 2022, published 2025)
